The target in one series is hERG (Homo sapiens, UniProt Q12809). Briefly: hERG % inhibition at 1 uM. On the technique in general: The hERG channel carries a current that helps repolarise heart muscle cells.
In another series the target is 5HT2B (Homo sapiens, UniProt P41595). In words: 5HT2B binding (Ki of Biological Data Table).
Another series in a line: HLM T1/2. Particulars: human, liver microsomes. A general note: Liver microsomes are a subcellular fraction often used to study metabolism.

What is called half-life is how long it takes for the measured level to halve.

Structures can show the parent of a compound that is named as a salt.

Sequence of hERG (Q12809 whole entry): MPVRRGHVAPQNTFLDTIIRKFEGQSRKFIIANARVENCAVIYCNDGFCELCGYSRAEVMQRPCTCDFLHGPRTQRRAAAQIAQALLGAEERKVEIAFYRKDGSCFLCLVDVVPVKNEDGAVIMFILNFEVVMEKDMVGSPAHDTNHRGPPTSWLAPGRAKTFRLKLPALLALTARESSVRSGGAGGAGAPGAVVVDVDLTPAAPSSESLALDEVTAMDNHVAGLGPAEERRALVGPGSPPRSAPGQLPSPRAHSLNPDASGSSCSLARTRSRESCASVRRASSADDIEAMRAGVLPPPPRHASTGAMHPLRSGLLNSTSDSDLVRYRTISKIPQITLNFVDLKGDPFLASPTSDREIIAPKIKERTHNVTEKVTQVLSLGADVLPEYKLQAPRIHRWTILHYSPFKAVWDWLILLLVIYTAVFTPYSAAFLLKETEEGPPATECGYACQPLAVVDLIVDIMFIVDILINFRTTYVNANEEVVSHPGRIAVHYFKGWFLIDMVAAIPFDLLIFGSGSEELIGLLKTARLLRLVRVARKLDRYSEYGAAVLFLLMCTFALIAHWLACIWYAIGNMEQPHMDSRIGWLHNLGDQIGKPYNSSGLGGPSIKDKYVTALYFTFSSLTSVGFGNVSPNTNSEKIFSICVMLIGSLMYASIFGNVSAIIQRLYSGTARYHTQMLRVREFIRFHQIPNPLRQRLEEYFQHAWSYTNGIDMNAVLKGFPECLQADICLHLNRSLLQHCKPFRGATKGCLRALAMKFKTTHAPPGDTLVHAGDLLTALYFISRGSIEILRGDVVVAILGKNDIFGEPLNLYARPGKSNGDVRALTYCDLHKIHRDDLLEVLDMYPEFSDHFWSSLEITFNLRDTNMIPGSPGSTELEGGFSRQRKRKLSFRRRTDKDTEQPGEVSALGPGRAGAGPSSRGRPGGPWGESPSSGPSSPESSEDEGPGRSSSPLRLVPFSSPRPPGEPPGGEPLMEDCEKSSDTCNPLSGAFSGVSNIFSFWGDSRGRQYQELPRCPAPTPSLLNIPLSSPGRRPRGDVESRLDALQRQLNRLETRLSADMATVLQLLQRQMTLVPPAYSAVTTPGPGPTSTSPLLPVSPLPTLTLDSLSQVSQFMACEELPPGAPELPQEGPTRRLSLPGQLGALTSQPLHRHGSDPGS
Sequence of 5HT2B (P41595 whole entry, species assumed): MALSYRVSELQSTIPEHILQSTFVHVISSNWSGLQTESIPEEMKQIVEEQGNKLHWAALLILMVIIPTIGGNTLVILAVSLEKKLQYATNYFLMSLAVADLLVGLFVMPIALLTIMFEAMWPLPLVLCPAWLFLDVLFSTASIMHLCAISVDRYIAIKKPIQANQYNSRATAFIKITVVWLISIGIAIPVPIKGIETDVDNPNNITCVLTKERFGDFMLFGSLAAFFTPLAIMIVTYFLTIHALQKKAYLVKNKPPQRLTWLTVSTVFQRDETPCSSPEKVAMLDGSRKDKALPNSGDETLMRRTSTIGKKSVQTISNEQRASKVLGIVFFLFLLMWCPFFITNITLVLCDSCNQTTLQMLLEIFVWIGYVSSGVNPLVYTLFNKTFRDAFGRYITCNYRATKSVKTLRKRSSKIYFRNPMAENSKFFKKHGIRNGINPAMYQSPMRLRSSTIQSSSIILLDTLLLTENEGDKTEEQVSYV

In the case of `Fc1ccccc1CN1CCC(Nc2ncnc3sc4c(c23)CCCC4)CC1` [Example B4, N-(1-(2-fluorobenzyl)piperidin-4-yl)5,6,7,8-tetrahydro-benzo[4,5]thieno[2,3-d]pyrimidin-4-amine], the “hERG (% Inhibition at 1 uM)” value at hERG is “hERG (% Inhibition at 1 uM): 58.5”.

On to `CN1CCC(N(C)c2ncnc3sc4c(c23)CCCC4)CC1` [Example B5, N-methyl-N-(1-methylpiperidin-4-yl)5,6,7,8-tetrahydro-benzo[4,5] thieno[2,3-d]pyrimidin-4-amine], for which, on 5HT2B, the “% at 10 nM (5HT2B)” value is listed as -2%, the “% at 100 nM (5HT2B)” value is given as 11% and the “% at 1000 nM (5HT2B)” value is recorded as 67%.

On to `Oc1cc(C(F)(F)F)cnc1N1CCC(Nc2ncnc3scc(-c4ccccc4)c23)CC1` [Example B7, 2-(4-(5-phenylthieno [2,3-d]pyrimidin-4-ylamino)piperidin-1-yl)-5-(trifluoromethyl) pyridin-3-ol], for which, on 5HT2B, the “% at 10 nM (5HT2B)” value was 3%, the “% at 100 nM (5HT2B)” value is given as 4% and the “% at 1000 nM (5HT2B)” value was determined as 30%.

`c1ccc(CN2CCC(Nc3ncnc4sccc34)CC2)cc1` [Example B8, N-(1-benzylpiperidin-4-yl)thieno [2,3-d]pyrimidin-4-amine]: on 5HT2B, the “% at 10 nM (5HT2B)” value turned out to be 13%, the “% at 100 nM (5HT2B)” value was determined as 62% and the “% at 1000 nM (5HT2B)” value is 96%.

The molecule `CC(c1cccc(F)c1)N1CCC(Nc2ncnc3sc4c(c23)CCCC4)CC1` (stereo not shown) [Example B10, N-(1-(1-(3-fluorophenyl)ethyl)piperidin-4-yl)-(5,6,7,8-tetrahydro-benzo[4,5]thieno[2,3-d]pyrimidin-4-amine, dihydrochloride] returned a half-life in “HLM T1/2” of less than 15 min.

`Cc1sc2ncnc(NC3CCN(C(C)c4cccc(F)c4)CC3)c2c1C` (stereo not shown) [Example B13, N-(1-(1-(3-fluorophenyl)ethyl)piperidin-4-yl)-5,6-dimethylthieno[2,3-d] pyrimidin-4-amine, dihydrochloride] gave a half-life in “HLM T1/2” of less than 15 min.

With `CC(c1cccc(F)c1)N1CCC(C)(Nc2ncnc3sc4c(c23)CCCC4)CC1` (stereo not shown) [Example B15, N-(1-(1-(3-fluorophenyl)ethyl)-4-methylpiperidin-4-yl) 5,6,7,8-tetrahydro-benzo[4,5]thieno[2,3-d]pyrimidin-4-amine, dihydrochloride], in “HLM T1/2”, the half-life is less than 15 min.

Turning to `CC(C)CC(c1cccc(F)c1)N1CCC(Nc2ncnc3sc4c(c23)CCCC4)CC1` (stereo not shown) [Example B16, N-(1-(1-(3-fluorophenyl)-3-methylbutyl)piperidin-4-yl)5,6,7,8-tetrahydro-benzo[4,5]thieno[2,3-d] pyrimidin-4-amine, dihydrochloride], the half-life in “HLM T1/2” is less than 15 min.

`CC(C)Cc1cc2c(NC3CCN(C(C)c4c(F)cc(F)cc4F)CC3)ncnc2s1` (stereo not shown) [Example B19, N-(1-(1-(2,4,6-trifluorophenyl)ethyl)piperidin-4-yl)-6-isobutylthieno[2,3-d]pyrimidin-4-amine, dihydrochloride]: the “hERG (% Inhibition at 1 uM)” value on hERG is recorded as “hERG (% Inhibition at 1 uM): 50.2”. The molecule further had a half-life in the series “HLM T1/2” of less than 15 min.

`CC(C)Cc1cc2c(NC3CCN(C(C)c4c(F)cccc4F)CC3)ncnc2s1` (stereo not shown) [Example B20, N-(1-(1-(2,6-difluorophenyl)ethyl)piperidin-4-yl)-6-isobutylthieno[2,3-d] pyrimidin-4-amine, dihydrochloride]: the “hERG (% Inhibition at 1 uM)” value on hERG was “hERG (% Inhibition at 1 uM): 73.4”. In “HLM T1/2”, the half-life was less than 15 min.

`CC(c1c(F)cccc1F)N1CCC(Nc2ncnc3sc4c(c23)CCCC4)CC1` (stereo not shown) [Example B21, N-(1-(1-(2,6-difluorophenyl)ethyl)piperidin-4-yl)5,6,7,8-tetrahydro-benzo[4,5]thieno[2,3-d]pyrimidin-4-amine, dihydrochloride] gave a half-life in “HLM T1/2” of less than 15 min.

Take `CC(C#N)(c1cccc(F)c1)N1CCC(Nc2ncnc3sc4c(c23)CCCC4)CC1` (stereo not shown) [Example B23, 2-(3-fluorophenyl)-2-(4-(5,6,7,8-tetrahydro-benzo[4,5]thieno[2,3-d]pyrimidin-4-ylamino)piperidin-1-yl) propanenitrile, dihydrochloride]: the half-life in the series “HLM T1/2” is less than 15 min.

The molecule `CC(C)(c1cccc(F)c1)N1CCC(Nc2ncnc3sc4c(c23)CCCC4)CC1` [Example B24, N-(1-(2-(3-fluorophenyl)propan-2-yl)piperidin-4-yl)5,6,7,8-tetrahydro-benzo[4,5]thieno[2,3-d]pyrimidin-4-amine, dihydrochloride] returned a half-life in the series “HLM T1/2” of less than 15 min.

The molecule `Fc1cccc(CNCCCNc2ncnc3sc4c(c23)CCCC4)c1` [Example B25, N-(3-(3-fluorobenzylamino)propyl)5,6,7,8-tetrahydro-benzo[4,5]thieno[2,3-d]pyrimidin-4-amine, dihydrochloride] came in with a half-life in the series “HLM T1/2” of less than 15 min.

In the series “HLM T1/2”, `CC(NCCCNc1ncnc2sc3c(c12)CCCC3)c1cccc(F)c1` (stereo not shown) [Example B26, N-(3-(1-(3-fluorophenyl)ethylamino)propyl) 5,6,7,8-tetrahydro-benzo[4,5]thieno[2,3-d] pyrimidin-4-amine, dihydrochloride] yielded a half-life of less than 15 min.

`CC(C)Cc1cc2c(NCCCNC(C)c3cccc(F)c3)ncnc2s1` (stereo not shown) [Example B27, N-(3-(1-(3-fluorophenyl)ethylamino)propyl)-6-isobutylthieno[2,3-d]pyrimidin-4-amine, dihydrochloride] yielded a half-life in “HLM T1/2” of less than 15 min.

`Fc1cccc(C(N2CCC(Nc3ncnc4sc5c(c34)CCCC5)CC2)C(F)(F)F)c1` (stereo not shown) [Example B28, N-(1-(2,2,2-trifluoro-1-(3-fluorophenyl)ethyl)piperidin-4-yl)5,6,7,8-tetrahydro-benzo[4,5]thieno[2,3-d]pyrimidin-4-amine, dihydrochloride]: in the series “HLM T1/2”, the half-life was 11 min.

In “HLM T1/2”, `CC(C)Cc1cc2c(N3CCC(NCc4cc(F)cc(F)c4)CC3)ncnc2s1` [Example B29, N-(3,5-difluorobenzyl)-1-(6-isobutylthieno[2,3-d]pyrimidin-4-yl) piperidin-4-amine, dihydrochloride] had a half-life of 18 min.

Consider `Fc1cc(F)cc(CN2CCC(Nc3ncnc4sc(Cl)cc34)CC2)c1` [Example B33, N-(1-(3,5-difluorobenzyl)piperidin-4-yl)-6-chlorothieno[2,3-d]pyrimidin-4-amine, dihydrochloride], for which, on hERG, the “hERG (% Inhibition at 1 uM)” value was “hERG (% Inhibition at 1 uM): 22.8”. In the series “HLM T1/2”, this molecule yielded a half-life of 13 min.

With `Cc1sc2ncnc(NC3CCN(CC4CCCCC4)CC3)c2c1C` [Example B35, N-(1-(cyclohexylmethyl)piperidin-4-yl)-5,6-dimethylthieno[2,3-d]pyrimidin-4-amine, dihydrochloride], at hERG, the “hERG (% Inhibition at 1 uM)” value is listed as “hERG (% Inhibition at 1 uM): 91.7”. The molecule further registered a half-life in “HLM T1/2” of less than 15 min.

With `Cc1sc2ncnc(NC3CCN(Cc4ccccc4C#N)CC3)c2c1C` [Example B36, 2-((4-(5,6-dimethylthieno[2,3-d]pyrimidin-4-ylamino)piperidin-1-yl)methyl)benzonitrile, dihydrochloride], at hERG, the “hERG (% Inhibition at 1 uM)” value is on record as “hERG (% Inhibition at 1 uM): 21.7”.

`Cc1c(Cl)sc2ncnc(NC3CCN(Cc4cccc(F)c4)CC3)c12` [Example B37, N-(1-(3-fluorobenzyl)piperidin-4-yl)-6-chloro-5-methylthieno[2,3-d]pyrimidin-4-amine, dihydrochloride]: the half-life in “HLM T1/2” amounted to 11 min.

With `Cc1c(Cl)sc2ncnc(NC3CCN(Cc4ccccc4C#N)CC3)c12` [Example B39, 2-((4-(6-chloro-5-methylthieno[2,3-d]pyrimidin-4-ylamino)piperidin-1-yl)methyl) benzonitrile, dihydrochloride], the half-life in “HLM T1/2” is less than 15 min.

With `COc1ccccc1CN1CCC(Nc2ncnc3sc(Cl)c(C)c23)CC1` [Example B40, N-(1-(2-methoxybenzyl)piperidin-4-yl)-6-chloro-5-methylthieno[2,3-d] pyrimidin-4-amine, dihydrochloride], the half-life in the series “HLM T1/2” was less than 15 min.

Take `Fc1cccc(CN2CCC(Nc3ncnc4sc(Cl)cc34)CC2)c1` [Example B41, N-(1-(3-fluorobenzyl)piperidin-4-yl)-6-chlorothieno[2,3-d]pyrimidin-4-amine, dihydrochloride]: the half-life in the series “HLM T1/2” was determined as 10 min.

For `NC(=O)c1cccc(CN2CCC(Nc3ncnc4sc(Cl)cc34)CC2)c1` [Example B45, 3-((4-(6-chlorothieno [2,3-d]pyrimidin-4-ylamino)piperidin-1-yl)methyl) benzamide, monomaleate], the half-life in the series “HLM T1/2” was determined as 86 min.

For `Fc1ccccc1CN1CCC(Nc2ncnc3sc(Cl)cc23)CC1` [Example B46, N-(1-(2-fluorobenzyl)piperidin-4-yl)-6-chlorothieno[2,3-d]pyrimidin-4-amine, monomaleate], the “hERG (% Inhibition at 1 uM)” value on hERG was “hERG (% Inhibition at 1 uM): 39.5”. In addition, the half-life in the series “HLM T1/2” was less than 15 min.

`Clc1cc2c(NC3CCN(Cc4cncnc4)CC3)ncnc2s1` [Example B49, 6-chloro-N-(1-((pyrimidin-5-yl)methyl)piperidin-4-yl)thieno[2,3-d] pyrimidin-4-amine, monomaleate] came in with a half-life in “HLM T1/2” of 60 min.

In the series “HLM T1/2”, `N#Cc1ccc(F)c(CN2CCC(Nc3ncnc4sc(Cl)cc34)CC2)c1` [Example B51, 3-((4-(6-chlorothieno [2,3-d]pyrimidin-4-ylamino)piperidin-1-yl)methyl)-4-fluorobenzonitrile, monomaleate] showed a half-life of 10 min.

In the series “HLM T1/2”, `Clc1cccc(CN2CCC(Nc3ncnc4sc(Cl)cc34)CC2)c1` [Example B52, N-(1-(3-chlorobenzyl)piperidin-4-yl)-6-chlorothieno[2,3-d]pyrimidin-4-amine, monomaleate] returned a half-life of 11 min.

`CC(C)c1c(Cl)sc2ncnc(NC3CCN(Cc4cccc(F)c4)CC3)c12` [Example B53, N-(1-(3-fluorobenzyl)piperidin-4-yl)-6-chloro-5-isopropylthieno[2,3-d]pyrimidin-4-amine, monomaleate]: the half-life in “HLM T1/2” is 8 min.

As to `FC(F)(F)c1cccc(CN2CCC(Nc3ncnc4sc(Cl)cc34)CC2)c1` [Example B54, N-(1-(3-(trifluoromethyl)benzyl)piperidin-4-yl)-6-chlorothieno[2,3-d]pyrimidin-4-amine, monomaleate], the half-life in the series “HLM T1/2” came to 16 min.

(Values after patent publication US20110082157A1, “Piperidinylamino-Thieno [2,3-D] Pyrimidine Compounds” (priority 2004, published 2011).)
